Assay results from patent publication US11136313B2, “Compounds, compositions, and methods for modulating CFTR” (Proteostasis Therapeutics, Inc., priority 2015, dated 2021).

Target: T1, ΔF508-CFTR (Homo sapiens, UniProt P13569, DEL508-508)
T1 construct: Primary lung epithelial cells homozygous for the Cystic Fibrosis-causing ΔF508 mutation were differentiated for a minimum of 4 weeks; endogenous in cells; host or cells: primary lung epithelial cells (hBE) homozygous for ΔF508, differentiated at an air-liquid interface
T1 sequence (P13569 with tags, fused parts or gaps DEL508-508): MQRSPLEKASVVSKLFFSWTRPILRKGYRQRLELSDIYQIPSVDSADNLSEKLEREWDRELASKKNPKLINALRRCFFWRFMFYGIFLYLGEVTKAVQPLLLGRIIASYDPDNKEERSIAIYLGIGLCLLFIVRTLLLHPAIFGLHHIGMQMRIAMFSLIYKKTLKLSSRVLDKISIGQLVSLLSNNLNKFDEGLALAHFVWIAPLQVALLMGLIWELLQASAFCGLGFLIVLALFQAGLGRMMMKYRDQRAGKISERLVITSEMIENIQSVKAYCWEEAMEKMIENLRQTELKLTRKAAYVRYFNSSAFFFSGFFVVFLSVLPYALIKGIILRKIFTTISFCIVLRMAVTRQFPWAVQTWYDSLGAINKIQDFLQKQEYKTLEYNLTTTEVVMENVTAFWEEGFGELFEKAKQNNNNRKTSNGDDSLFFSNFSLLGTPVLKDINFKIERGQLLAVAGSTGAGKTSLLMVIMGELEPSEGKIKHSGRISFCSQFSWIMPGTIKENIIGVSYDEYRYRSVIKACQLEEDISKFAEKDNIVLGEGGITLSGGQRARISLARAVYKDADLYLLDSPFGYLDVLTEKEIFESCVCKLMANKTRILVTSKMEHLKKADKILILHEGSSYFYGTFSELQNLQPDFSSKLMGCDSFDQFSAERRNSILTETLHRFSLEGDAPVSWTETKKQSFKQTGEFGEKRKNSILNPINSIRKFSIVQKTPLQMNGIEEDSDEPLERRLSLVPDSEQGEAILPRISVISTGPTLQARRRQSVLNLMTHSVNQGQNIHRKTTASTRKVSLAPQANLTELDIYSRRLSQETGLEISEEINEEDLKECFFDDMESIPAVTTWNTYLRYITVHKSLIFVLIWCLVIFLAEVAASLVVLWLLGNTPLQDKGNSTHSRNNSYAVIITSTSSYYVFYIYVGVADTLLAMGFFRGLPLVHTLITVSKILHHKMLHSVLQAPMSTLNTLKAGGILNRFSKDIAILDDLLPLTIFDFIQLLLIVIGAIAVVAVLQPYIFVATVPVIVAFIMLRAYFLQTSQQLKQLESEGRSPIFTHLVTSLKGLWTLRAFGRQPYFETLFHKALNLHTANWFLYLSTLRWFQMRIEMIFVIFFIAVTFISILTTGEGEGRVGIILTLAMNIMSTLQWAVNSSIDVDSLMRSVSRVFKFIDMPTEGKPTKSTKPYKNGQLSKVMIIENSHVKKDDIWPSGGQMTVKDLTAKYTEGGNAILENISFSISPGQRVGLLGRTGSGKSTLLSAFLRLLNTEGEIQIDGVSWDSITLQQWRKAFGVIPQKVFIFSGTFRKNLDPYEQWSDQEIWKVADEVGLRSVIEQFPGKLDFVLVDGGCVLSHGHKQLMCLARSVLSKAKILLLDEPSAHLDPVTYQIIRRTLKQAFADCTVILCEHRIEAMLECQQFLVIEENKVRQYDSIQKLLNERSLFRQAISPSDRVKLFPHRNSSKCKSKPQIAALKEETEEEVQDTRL
Experiment: hBE equivalent current (Ieq) assay: AUC of equivalent chloride current after forskolin/VX-770 in primary lung epithelial cells homozygous for ΔF508
Type: cell-based
Details: relative to CFTR amplifier (Compound A)+VX-809 (3 uM), compound at 10 uM and Compound A at 3 uM, 24 h treatment
In short: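 Readout is the increase over vehicle in equivalent chloride current AUC from forskolin/VX-770 addition to bumetanide, measured by current clamp at 36 °C after benzamil block of ENaC. Cultures were homozygous ΔF508 primary lung epithelium grown ≥4 weeks at air-liquid interface and exposed basolaterally to compound for 24 h.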

Compound | Activity
Cc1oc2ccccc2c1-c1cc(C(=O)O)c2c(OCC(F)F)ccc(C)c2n1 [Compound 124, 5-(2,2-Difluoroethoxy)-8-methyl-2-(2-methyl-1-benzofuran-3-yl)quinoline-4-carboxylic acid] | + (activity<50% of an CFTR amplifier (Compound A)+VX-809 (3 uM) with compound at 10 uM and Compound A at 3 uM)
Cc1c(-c2cc(C(=O)O)c3c(C)ccc(C)c3n2)oc2c(C)cccc12 [Compound 125, 2-(3,7-Dimethyl-1-benzofuran-2-yl)-5,8-dimethylquinoline-4-carboxylic acid] | ++ (activity>50% of CFTR amplifier+VX-809 (3 uM) with compound at 10 uM and Compound A at 3 uM)
Cc1ccc2oc(-c3cc(C(=O)O)c4c(C)ccc(C)c4n3)c(C)c2c1 [Compound 127, 2-(3,5-Dimethylbenzofuran-2-yl)-5,8-dimethylquinoline-4-carboxylic acid] | ++ (activity>50% of CFTR amplifier+VX-809 (3 uM) with compound at 10 uM and Compound A at 3 uM)
Cc1ccc(C)c2c(C(=O)O)cc(-c3oc4cccc(C)c4c3C)nc12 [Compound 128, 2-(3,4-Dimethyl-1-benzofuran-2-yl)-5,8-dimethylquinoline-4-carboxylic acid] | + (activity<50% of an CFTR amplifier (Compound A)+VX-809 (3 uM) with compound at 10 uM and Compound A at 3 uM)
Cc1c(-c2cc(C(=O)O)c3c(C)ccc(C)c3n2)oc2c(Cl)cccc12 [Compound 129, 2-(7-Chloro-3-methylbenzofuran-2-yl)-5,8-dimethylquinoline-4-carboxylic acid] | + (activity<50% of an CFTR amplifier (Compound A)+VX-809 (3 uM) with compound at 10 uM and Compound A at 3 uM)
Cc1c(-c2cc(C(=O)O)c3c(C)ccc(C)c3n2)oc2c(F)cccc12 [Compound 130, 2-(7-Fluoro-3-methyl-1-benzofuran-2-yl)-5,8-dimethylquinoline-4-carboxylic acid] | + (activity<50% of an CFTR amplifier (Compound A)+VX-809 (3 uM) with compound at 10 uM and Compound A at 3 uM)
Cc1c(-c2cc(C(=O)O)c3c(C)ccc(C)c3n2)oc2c(OCc3ccccc3)cccc12 [Compound 132, 2-[7-(Benzyloxy)-3-methyl-1-benzofuran-2-yl]-5,8-dimethylquinoline-4-carboxylic acid] | ++ (activity>50% of CFTR amplifier+VX-809 (3 uM) with compound at 10 uM and Compound A at 3 uM)
CCc1ccc(OCc2ccccc2)c2c(C(=O)O)cc(-c3sc4ccccc4c3C)nc12 [Compound 133, 5-(Benzyloxy)-8-ethyl-2-(3-methyl-1-benzothiophen-2-yl)quinoline-4-carboxylic acid] | ++ (activity>50% of CFTR amplifier+VX-809 (3 uM) with compound at 10 uM and Compound A at 3 uM)
Cc1c(-c2cc(C(=O)O)c3c(OC4CCCCC4)ccc(C)c3n2)sc2ccccc12 [Compound 134, 5-(Cyclohexyloxy)-8-methyl-2-(3-methyl-1-benzothiophen-2-yl)quinoline-4-carboxylic acid] | ++ (activity>50% of CFTR amplifier+VX-809 (3 uM) with compound at 10 uM and Compound A at 3 uM)
CCc1ccc(OC2CCCCC2)c2c(C(=O)O)cc(-c3sc4ccccc4c3C)nc12 [Compound 135, 5-(Cyclohexyloxy)-8-ethyl-2-(3-methyl-1-benzothiophen-2-yl)quinoline-4-carboxylic acid] | ++ (activity>50% of CFTR amplifier+VX-809 (3 uM) with compound at 10 uM and Compound A at 3 uM)
Cc1c(-c2cc(C(=O)O)c3c(O[C@H](C)c4ccccc4)ccc(C)c3n2)sc2ccccc12 [Compound 137, 8-Methyl-2-(3-methyl-1-benzothiophen-2-yl)-5-[(1R)-1-phenylethoxy]quinoline-4-carboxylic Acid] | ++ (activity>50% of CFTR amplifier+VX-809 (3 uM) with compound at 10 uM and Compound A at 3 uM)
Cc1c(-c2cc(C(=O)O)c3c(O[C@@H](C)c4ccccc4)ccc(C)c3n2)sc2ccccc12 [Compound 138, 8-Methyl-2-(3-methyl-1-benzothiophen-2-yl)-5-[(1S)-1-phenylethoxy]quinoline-4-carboxylic Acid] | ++ (activity>50% of CFTR amplifier+VX-809 (3 uM) with compound at 10 uM and Compound A at 3 uM)
CCc1ccc([S+]([O-])C2CCCCC2)c2c(C(=O)[O-])cc(-c3sc4ccccc4c3C)nc12.[Na+] (stereo not drawn) [Compound 140, Sodium 5-(Cyclohexanesulfinyl)-8-ethyl-2-(3-methyl-1-benzothiophen-2-yl)quinoline-4-carboxylate] | ++ (activity>50% of CFTR amplifier+VX-809 (3 uM) with compound at 10 uM and Compound A at 3 uM)
CCc1ccc(OCCc2cccnc2)c2c(C(=O)O)cc(-c3sc4ccccc4c3C)nc12 [Compound 141, 8-Ethyl-2-(3-methyl-1-benzothiophen-2-yl)-5-[2-(pyridin-3-yl)ethoxy]quinoline-4-carboxylic Acid] | + (activity<50% of an CFTR amplifier (Compound A)+VX-809 (3 uM) with compound at 10 uM and Compound A at 3 uM)
CCc1ccc(OCc2cccc([S+](C)[O-])c2)c2c(C(=O)O)cc(-c3oc4ccccc4c3C)nc12 (stereo not drawn) [Compound 142, 8-Ethyl-5-[(3-methanesulfinylphenyl)methoxy]-2-(3-methyl-1-benzofuran-2-yl)quinoline-4-carboxylic Acid] | ++ (activity>50% of CFTR amplifier+VX-809 (3 uM) with compound at 10 uM and Compound A at 3 uM)
CCc1ccc(OCc2cccc(S(C)(=O)=O)c2)c2c(C(=O)O)cc(-c3oc4ccccc4c3C)nc12 [Compound 143, 8-Ethyl-5-[(3-methanesulfonylphenyl)methoxy]-2-(3-methyl-1-benzofuran-2-yl)quinoline-4-carboxylic Acid] | ++ (activity>50% of CFTR amplifier+VX-809 (3 uM) with compound at 10 uM and Compound A at 3 uM)
CCc1ccc(OCc2ccc([S+](C)[O-])cc2)c2c(C(=O)O)cc(-c3oc4ccccc4c3C)nc12 (stereo not drawn) [Compound 144, 8-Ethyl-5-[(4-methanesulfinylphenyl)methoxy]-2-(3-methyl-1-benzofuran-2-yl)quinoline-4-carboxylic acid] | ++ (activity>50% of CFTR amplifier+VX-809 (3 uM) with compound at 10 uM and Compound A at 3 uM)
CCc1ccc(OCc2ccc(S(C)(=O)=O)cc2)c2c(C(=O)O)cc(-c3oc4ccccc4c3C)nc12 [Compound 145, 8-Ethyl-5-[(4-methanesulfonylphenyl)methoxy]-2-(3-methyl-1-benzofuran-2-yl)quinoline-4-carboxylic acid] | ++ (activity>50% of CFTR amplifier+VX-809 (3 uM) with compound at 10 uM and Compound A at 3 uM)
CCc1ccc(OCc2ccccc2)c2c(C(=O)O)cc(-c3[nH]c4ccccc4c3C)nc12 [Compound 146, 5-(Benzyloxy)-8-ethyl-2-(3-methyl-1H-indol-2-yl)quinoline-4-carboxylic acid] | ++ (activity>50% of CFTR amplifier+VX-809 (3 uM) with compound at 10 uM and Compound A at 3 uM)
CCc1ccc(OCc2ccccc2)c2c(C(=O)O)cc(-c3c(C)c4ccccc4n3C)nc12 [Compound 147, 5-(Benzyloxy)-2-(1,3-dimethyl-1H-indol-2-yl)-8-ethylquinoline-4-carboxylic acid] | + (activity<50% of an CFTR amplifier (Compound A)+VX-809 (3 uM) with compound at 10 uM and Compound A at 3 uM)
CCc1ccc(OCc2ccccc2)c2c(C(=O)O)cc(-c3csc4ccccc34)nc12 [Compound 158, 2-(1-Benzothiophen-3-yl)-5-(benzyloxy)-8-ethylquinoline-4-carboxylic acid] | ++ (activity>50% of CFTR amplifier+VX-809 (3 uM) with compound at 10 uM and Compound A at 3 uM)
CCc1ccc(OC2CCCCC2)c2c(C(=O)O)cc(-c3csc4ccccc34)nc12 [Compound 159, 2-(1-Benzothiophen-3-yl)-5-(cyclohexyloxy)-8-ethylquinoline-4-carboxylic acid] | ++ (activity>50% of CFTR amplifier+VX-809 (3 uM) with compound at 10 uM and Compound A at 3 uM)
Cc1ccc(O[C@H](C)c2ccccc2)c2c(C(=O)O)cc(-c3csc4ccccc34)nc12 [Compound 162] | ++ (activity>50% of CFTR amplifier+VX-809 (3 uM) with compound at 10 uM and Compound A at 3 uM)
CCc1ccc(O[C@H](C)c2ccccc2)c2c(C(=O)O)cc(-c3csc4ccccc34)nc12 [Compound 165] | ++ (activity>50% of CFTR amplifier+VX-809 (3 uM) with compound at 10 uM and Compound A at 3 uM)
CCc1ccc(O[C@@H](C)c2ccccc2)c2c(C(=O)O)cc(-c3csc4ccccc34)nc12 [Compound 166] | ++ (activity>50% of CFTR amplifier+VX-809 (3 uM) with compound at 10 uM and Compound A at 3 uM)
CCc1ccc(OCc2ccccc2)c2c(C(=O)O)cc(-c3coc4ccccc34)nc12 [Compound 169, 2-(1-Benzofuran-3-yl)-5-(benzyloxy)-8-ethylquinoline-4-carboxylic acid] | ++ (activity>50% of CFTR amplifier+VX-809 (3 uM) with compound at 10 uM and Compound A at 3 uM)
CCc1ccc(OC2CCCCC2)c2c(C(=O)O)cc(-c3coc4ccccc34)nc12 [Compound 170, 2-(1-Benzofuran-3-yl)-5-(cyclohexyloxy)-8-ethylquinoline-4-carboxylic acid] | ++ (activity>50% of CFTR amplifier+VX-809 (3 uM) with compound at 10 uM and Compound A at 3 uM)
CCc1ccc(OCc2ccccc2)c2c(C(=O)O)cc(-c3c(C)oc4ccccc34)nc12 [Compound 175] | ++ (activity>50% of CFTR amplifier+VX-809 (3 uM) with compound at 10 uM and Compound A at 3 uM)
CCc1ccc(OC2CCCCC2)c2c(C(=O)O)cc(-c3c(C)oc4ccccc34)nc12 [Compound 176] | ++ (activity>50% of CFTR amplifier+VX-809 (3 uM) with compound at 10 uM and Compound A at 3 uM)
CCc1cc(C(C)(C)C)cc2c(C(=O)O)cc(-c3c(C)oc4ccccc34)nc12 [Compound 178, 6-tert-Butyl-8-ethyl-2-(2-methyl-1-benzofuran-3-yl)quinoline-4-carboxylic acid] | ++ (activity>50% of CFTR amplifier+VX-809 (3 uM) with compound at 10 uM and Compound A at 3 uM)
